# Data: publication PMC3367954, “The Influence of pH on the Specific Adhesion of P Piliated Escherichia coli” (PLoS ONE, 2012)
# Biological target: T1, PapG adhesin (isolated P pili) (Escherichia coli, UniProt P13720)
# T1 construct: gene papGI; native PapG at the tip of isolated P pili (rod of PapA), sheared from E. coli HB101/pPAP5, ammonium sulfate precipitated; PapG not purified separately
# Assay: surface plasmon resonance (Biacore X100), isolated P pili over immobilised galabiose-BSA
# Type: binding
# Conditions: galabiose as BSA conjugate (about 30 per BSA) on CM3 chip, BSA reference subtracted; citrate-phosphate buffer pH 3.5-8.0, 25 °C; multivalent
# T1 sequence (P13720 22-335): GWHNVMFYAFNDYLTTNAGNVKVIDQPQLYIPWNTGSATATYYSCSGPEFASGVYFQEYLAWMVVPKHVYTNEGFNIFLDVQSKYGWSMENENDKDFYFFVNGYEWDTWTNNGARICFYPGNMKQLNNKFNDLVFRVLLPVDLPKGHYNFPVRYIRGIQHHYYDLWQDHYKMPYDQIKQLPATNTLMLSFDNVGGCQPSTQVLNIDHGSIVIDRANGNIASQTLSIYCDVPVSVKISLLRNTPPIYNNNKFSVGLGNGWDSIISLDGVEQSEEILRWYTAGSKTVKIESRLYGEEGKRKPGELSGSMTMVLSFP
smiles,measurement,value
"OC[C@H]1O[C@H](O[C@@H]2[C@H](O)[C@@H](O)C(O)O[C@@H]2CO)[C@H](O)[C@@H](O)[C@H]1O (stereo partly drawn) [galabiose, α-D-Gal-(1–4)-β-D-Gal]","surface plasmon resonance (Biacore X100), isolated P pili over immobilised galab",the binding stability of both isolated pili and bacteria to galabiose-coated surfaces was high
